Data set [1] deals with Beta-2 adrenergic receptor (Homo sapiens, UniProt P07550). The experiment in a line: Binding affinity to adrenergic beta-2 receptor.
Data set [2] addresses T1, 5-hydroxytryptamine receptor 4 (Rattus norvegicus, UniProt Q62758). The experiment in a line: Agonism at 5HT4 receptor in rat tunica muscularis mucosa. Format: functional.
The target in data set [3] is T2, Serotonin 3 receptor (5HT3) (Mus musculus) (UniProt Q9JHJ5+P23979). The experiment in a line: Antagonism at 5HT3 receptor in mice by von Bezold-Jarisch reflex inhibition at 10 mg/kg, ip. Format: functional, organism-based. On the set-up: dose 10 mg/kg.
Data set [4] concerns Canis familiaris. The experiment in a line: Effect on solid gastric emptying in iv dosed dog. The data set is classed as functional. Particulars: Canis lupus familiaris, Stomach; call rule not given here.
The target of data set [5] is T2, Serotonin 3 receptor (5HT3) (Mus musculus). The experiment in a line: Antagonism at 5HT3 receptor in mice by von Bezold-Jarisch reflex inhibition at 1 mg/kg, ip. The data set is classed as functional, organism-based. On the set-up: dose 1 mg/kg.
Data set [6] relates to Salmonella typhi. The experiment in a line: Mutagenic activity in a GLP study using Salmonella Typhimurium TA98 in presence of S9 fraction at 7.2-3600 ug/plate. To be noted: salmonella enterica subsp. enterica […]. The data set is classed as toxicity, organism-based.
Data set [7] relates to Salmonella typhi. The experiment in a line: Mutagenic activity in a GLP study using Salmonella Typhimurium TA1535 in presence of S9 fraction at 7.2-3600 ug/plate. The data set is classed as toxicity, organism-based. Particulars: salmonella enterica subsp. enterica […].
Data set [8] has as its target T3, Adrenergic receptor alpha-1 (Homo sapiens, UniProt P35348+P25100+P35368).
T3 sequence (P35348 whole entry): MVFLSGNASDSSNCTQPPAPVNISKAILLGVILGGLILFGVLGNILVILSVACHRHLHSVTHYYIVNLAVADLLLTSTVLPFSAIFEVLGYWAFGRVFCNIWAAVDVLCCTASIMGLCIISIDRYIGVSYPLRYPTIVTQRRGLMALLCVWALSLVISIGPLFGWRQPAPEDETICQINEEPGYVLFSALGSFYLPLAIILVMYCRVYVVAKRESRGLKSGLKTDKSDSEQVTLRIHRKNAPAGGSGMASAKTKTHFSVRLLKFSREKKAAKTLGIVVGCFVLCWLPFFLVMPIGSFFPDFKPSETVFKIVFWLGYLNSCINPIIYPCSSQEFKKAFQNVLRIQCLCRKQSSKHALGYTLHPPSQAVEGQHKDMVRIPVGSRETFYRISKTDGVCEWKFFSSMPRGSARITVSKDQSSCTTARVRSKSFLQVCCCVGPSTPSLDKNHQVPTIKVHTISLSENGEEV
T3 sequence (P25100 whole entry): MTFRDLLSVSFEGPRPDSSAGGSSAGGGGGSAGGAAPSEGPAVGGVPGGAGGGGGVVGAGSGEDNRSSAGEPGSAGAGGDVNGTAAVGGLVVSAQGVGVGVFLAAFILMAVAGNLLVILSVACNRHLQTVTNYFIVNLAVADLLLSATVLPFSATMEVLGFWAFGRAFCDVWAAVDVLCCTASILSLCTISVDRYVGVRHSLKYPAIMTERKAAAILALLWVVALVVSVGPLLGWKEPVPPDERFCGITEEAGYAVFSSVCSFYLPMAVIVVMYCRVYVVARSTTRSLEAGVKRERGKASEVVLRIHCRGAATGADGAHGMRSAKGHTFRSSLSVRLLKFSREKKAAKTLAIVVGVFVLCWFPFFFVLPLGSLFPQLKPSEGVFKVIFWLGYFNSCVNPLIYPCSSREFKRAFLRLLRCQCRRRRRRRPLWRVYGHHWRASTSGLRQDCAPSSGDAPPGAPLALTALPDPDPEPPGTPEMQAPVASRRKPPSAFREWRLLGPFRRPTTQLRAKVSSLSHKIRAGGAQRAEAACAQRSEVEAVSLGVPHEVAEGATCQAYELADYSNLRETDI
T3 sequence (P35368 whole entry): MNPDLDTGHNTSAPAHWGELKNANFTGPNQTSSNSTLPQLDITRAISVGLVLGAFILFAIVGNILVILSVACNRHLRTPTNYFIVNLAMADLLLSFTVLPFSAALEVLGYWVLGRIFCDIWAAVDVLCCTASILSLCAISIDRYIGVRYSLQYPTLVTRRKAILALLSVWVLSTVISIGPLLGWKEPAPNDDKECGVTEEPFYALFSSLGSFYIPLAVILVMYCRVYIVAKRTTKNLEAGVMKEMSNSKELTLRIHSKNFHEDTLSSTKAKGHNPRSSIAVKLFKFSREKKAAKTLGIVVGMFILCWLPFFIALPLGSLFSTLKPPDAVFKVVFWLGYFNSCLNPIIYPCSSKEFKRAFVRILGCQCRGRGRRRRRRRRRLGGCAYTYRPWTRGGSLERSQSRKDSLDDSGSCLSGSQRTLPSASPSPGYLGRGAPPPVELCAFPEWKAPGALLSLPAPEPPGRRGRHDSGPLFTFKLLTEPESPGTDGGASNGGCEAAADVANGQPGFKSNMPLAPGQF
The experiment in a line: Binding affinity to adrenergic alpha-1 receptor. Format: protein assay.

The target in data set [9] is D(2) dopamine receptor (Homo sapiens, UniProt P14416). The experiment in a line: Binding affinity to dopamine receptor D2.
In data set [10] the test system is Salmonella typhi. The experiment in a line: Mutagenic activity in a GLP study using Salmonella Typhimurium TA97 in presence of S9 fraction at 7.2-3600 ug/plate. Particulars: salmonella enterica subsp. enterica […]. The data set is classed as toxicity, organism-based.
Data set [11] concerns the target T4, Serotonin 3 (5-HT3) receptor (Rattus norvegicus, UniProt P35563+Q9JJ16).
T4 sequence (P35563 whole entry): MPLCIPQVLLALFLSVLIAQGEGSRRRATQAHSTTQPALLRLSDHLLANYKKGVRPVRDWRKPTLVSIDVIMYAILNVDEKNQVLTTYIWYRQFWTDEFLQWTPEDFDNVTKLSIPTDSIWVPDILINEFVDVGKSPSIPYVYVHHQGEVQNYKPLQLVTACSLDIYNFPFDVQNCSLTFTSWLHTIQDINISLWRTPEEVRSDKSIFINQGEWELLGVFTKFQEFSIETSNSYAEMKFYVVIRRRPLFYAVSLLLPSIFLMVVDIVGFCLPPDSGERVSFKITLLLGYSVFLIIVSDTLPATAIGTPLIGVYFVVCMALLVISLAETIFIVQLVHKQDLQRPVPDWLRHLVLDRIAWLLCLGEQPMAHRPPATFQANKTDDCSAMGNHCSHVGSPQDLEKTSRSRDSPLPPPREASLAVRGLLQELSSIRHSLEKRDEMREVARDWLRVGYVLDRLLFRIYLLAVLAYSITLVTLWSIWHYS
T4 sequence (Q9JJ16 whole entry): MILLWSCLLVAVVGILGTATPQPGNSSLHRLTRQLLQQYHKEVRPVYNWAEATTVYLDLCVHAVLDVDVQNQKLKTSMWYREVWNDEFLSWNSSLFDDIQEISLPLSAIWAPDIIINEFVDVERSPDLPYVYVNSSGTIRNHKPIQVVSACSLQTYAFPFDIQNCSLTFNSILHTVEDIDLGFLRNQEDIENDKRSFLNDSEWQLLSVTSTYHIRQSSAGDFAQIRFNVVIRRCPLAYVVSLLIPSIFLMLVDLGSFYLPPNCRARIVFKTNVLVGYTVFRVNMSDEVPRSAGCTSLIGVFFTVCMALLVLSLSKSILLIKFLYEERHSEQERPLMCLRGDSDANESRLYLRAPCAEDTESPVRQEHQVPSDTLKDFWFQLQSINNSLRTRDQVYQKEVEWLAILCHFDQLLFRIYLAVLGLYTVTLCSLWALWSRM
The experiment in a line: Displacement of [3H]GR65630 from 5HT3 receptor in brain cortex from Wistar rat. The data set is classed as tissue-based. (In a radioligand displacement assay an active substance lowers the binding of a labelled ligand.)

Data set [12] concerns the target T1, 5-hydroxytryptamine receptor 4. The experiment in a line: Antagonism at 5HT4 receptor in rat tunica muscularis mucosa. Format: functional, tissue-based. To be noted: read-out: pA2 (converted).

The source of these data is ChEMBL document CHEMBL1149398, “Pyrrolizidine esters and amides as 5-HT4 receptor agonists and antagonists” (J Med Chem, 2006).

As a reminder, the IC50 is the concentration needed to halve the response being measured. In general, EC50 refers to the midpoint of the concentration-response curve. Broadly, the inhibition is the share of the control response that was lost under treatment. Read a high inhibition as a strong effect. By ED50 is commonly meant the midpoint of the dose-response relation. A low value points to greater potency. For orientation: Ki means a measure of affinity in units of concentration, obtained from inhibition or displacement. Read a low Ki as tighter binding.

Chain of Beta-2 adrenergic receptor (P07550 whole entry): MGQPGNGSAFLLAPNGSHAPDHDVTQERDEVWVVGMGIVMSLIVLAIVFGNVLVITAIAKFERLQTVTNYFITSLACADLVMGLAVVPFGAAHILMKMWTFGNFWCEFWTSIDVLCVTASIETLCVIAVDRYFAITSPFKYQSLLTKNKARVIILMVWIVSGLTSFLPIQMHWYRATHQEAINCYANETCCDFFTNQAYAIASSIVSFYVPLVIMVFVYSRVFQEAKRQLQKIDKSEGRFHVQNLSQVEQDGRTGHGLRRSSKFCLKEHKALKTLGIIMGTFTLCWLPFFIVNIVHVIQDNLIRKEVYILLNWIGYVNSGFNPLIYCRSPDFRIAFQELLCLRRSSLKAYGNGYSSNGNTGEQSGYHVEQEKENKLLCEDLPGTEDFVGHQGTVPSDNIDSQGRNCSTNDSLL
Chain of D(2) dopamine receptor (P14416 whole entry): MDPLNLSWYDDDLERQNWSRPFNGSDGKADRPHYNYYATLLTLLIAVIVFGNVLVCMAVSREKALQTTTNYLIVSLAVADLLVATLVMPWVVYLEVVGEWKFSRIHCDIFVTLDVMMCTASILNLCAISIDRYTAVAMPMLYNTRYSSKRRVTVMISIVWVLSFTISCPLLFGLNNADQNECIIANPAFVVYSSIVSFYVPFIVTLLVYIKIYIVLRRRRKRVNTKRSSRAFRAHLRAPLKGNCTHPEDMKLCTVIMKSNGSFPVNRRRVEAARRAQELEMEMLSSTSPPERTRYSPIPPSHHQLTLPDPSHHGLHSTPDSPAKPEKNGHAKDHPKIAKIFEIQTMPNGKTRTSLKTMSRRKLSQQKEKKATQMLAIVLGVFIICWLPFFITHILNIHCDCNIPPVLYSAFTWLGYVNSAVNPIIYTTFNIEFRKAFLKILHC
T1 sequence (Q62758 whole entry): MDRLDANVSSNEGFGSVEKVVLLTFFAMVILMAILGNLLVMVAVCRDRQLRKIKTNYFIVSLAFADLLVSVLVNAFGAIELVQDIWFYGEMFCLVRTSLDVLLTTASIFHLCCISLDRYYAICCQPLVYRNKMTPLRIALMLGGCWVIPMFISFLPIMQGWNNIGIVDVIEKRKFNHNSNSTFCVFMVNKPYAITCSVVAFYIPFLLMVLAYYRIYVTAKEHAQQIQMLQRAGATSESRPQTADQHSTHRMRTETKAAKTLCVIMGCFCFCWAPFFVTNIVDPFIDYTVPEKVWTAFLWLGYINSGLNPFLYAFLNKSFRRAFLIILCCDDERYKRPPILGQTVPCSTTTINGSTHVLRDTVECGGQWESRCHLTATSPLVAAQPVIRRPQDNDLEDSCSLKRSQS
T2 sequence (P23979 whole entry, looked up): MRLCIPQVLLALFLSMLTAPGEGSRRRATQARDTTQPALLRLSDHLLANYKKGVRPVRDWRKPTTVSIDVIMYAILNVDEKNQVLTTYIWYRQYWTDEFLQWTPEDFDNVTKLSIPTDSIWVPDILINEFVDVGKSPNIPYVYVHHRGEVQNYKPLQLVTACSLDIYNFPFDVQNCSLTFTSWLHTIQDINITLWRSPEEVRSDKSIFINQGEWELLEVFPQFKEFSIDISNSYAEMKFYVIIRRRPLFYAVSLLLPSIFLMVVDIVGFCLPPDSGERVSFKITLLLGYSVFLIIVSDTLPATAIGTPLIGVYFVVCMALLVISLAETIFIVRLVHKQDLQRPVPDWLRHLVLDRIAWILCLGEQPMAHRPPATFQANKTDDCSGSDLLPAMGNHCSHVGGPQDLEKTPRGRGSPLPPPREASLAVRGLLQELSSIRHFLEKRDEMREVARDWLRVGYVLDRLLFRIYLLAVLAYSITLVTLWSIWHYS
T2 sequence (Q9JHJ5 whole entry, looked up): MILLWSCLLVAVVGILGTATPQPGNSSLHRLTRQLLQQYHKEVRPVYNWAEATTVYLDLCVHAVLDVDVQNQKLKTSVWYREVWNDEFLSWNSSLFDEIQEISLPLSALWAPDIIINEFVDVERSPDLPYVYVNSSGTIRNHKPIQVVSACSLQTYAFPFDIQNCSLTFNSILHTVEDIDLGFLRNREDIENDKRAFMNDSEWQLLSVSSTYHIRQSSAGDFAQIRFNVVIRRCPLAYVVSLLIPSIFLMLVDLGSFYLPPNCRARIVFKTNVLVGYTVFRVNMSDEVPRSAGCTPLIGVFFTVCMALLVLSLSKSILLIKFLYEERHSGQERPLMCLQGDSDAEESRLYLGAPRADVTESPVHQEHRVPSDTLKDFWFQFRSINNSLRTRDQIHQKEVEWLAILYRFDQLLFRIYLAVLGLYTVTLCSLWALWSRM

As to `COc1cc(N)c(Cl)cc1C(=O)NC[C@@H]1CCN2CCC[C@@H]12`, the half-maximal inhibitory concentration (IC50) in [1], in data set [8] and in [9] was more than 10 µM in each case. The compound further displayed a concentration for a half-maximal effect (EC50) in data set [2] of 16.5 nM. Also, the inhibition in [3] was 87%; in [5], 7%. In [4], this compound registered an ED50 of 1 µg/kg. The result in [6], in data set [7] and in [10] was Active.

Take `COc1cc(N)c(Cl)cc1C(=O)N[C@@H]1C2CC3CN(C2)CC31` (stereo not given in full): the IC50 in [1], in data set [8] and in data set [9] was more than 10 µM each time. The compound further displayed a Ki in data set [11] of 1.2 nM.

Regarding `O=C(NC[C@@H]1CCN2CCC[C@@H]12)c1cc(Cl)cn2ccnc12`, the IC50 in data set [1], in [8] and in data set [9] was more than 10 µM in each case. The compound also gave a half-maximal effective concentration (EC50) in data set [2] of more than 10000 nM. The Kb in data set [12] is 7.41 nM. Moreover, in data set [11], the affinity corresponds to a Ki of 259 nM.

As to `O=C(OC[C@@H]1CCN2CCC[C@@H]12)c1[nH]nc2ccccc12` (single isomer, unassigned), the IC50 in data set [1], in [8] and in [9] was more than 10 µM each time. Besides, the Kb in data set [12] is 3.31 nM. Moreover, in data set [11], affinity was put at a Ki of 135 nM.

With `O=C(OC[C@@H]1CCN2CCC[C@@H]12)c1c[nH]c2ccccc12`, the IC50 in [1], in data set [8] and in data set [9] was more than 10 µM each time. Moreover, the Kb in [12] was 1.17 nM. The Ki in [11] is 5 nM.

For `Cn1nc(C(=O)OC[C@@H]2CCN3CCC[C@@H]23)c2ccccc21` (single isomer, unassigned), the IC50 in data set [1], in [8] and in [9] was more than 10 µM throughout. The Kb in data set [12] is 2.75 nM. This compound also showed an inhibition constant Ki in data set [11] of 20 nM.
